Assay results taken from PubChem BioAssay (NCI).
Where “and” joins values, the source holds several entries; their conditions need not be identical. Identical values can stand only once.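 Method: 48-hour compound exposure of cells in 96-well plates, five concentrations, linear interpolation of endpoints. GI50 marks 50% less growth. TGI: concentration producing complete growth inhibition.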

Columns and labels:
Experiment in all cases: inhibition of tumour cell growth, NCI panel, 48 h
786-0 renal = tested on: 786-0 renal
OVCAR-8 ovarian = tested on: OVCAR-8 ovarian
SK-MEL-5 melanoma = tested on: SK-MEL-5 melanoma
CCRF-CEM leukemia = tested on: CCRF-CEM leukemia
M14 melanoma = tested on: M14 melanoma
CAKI-1 renal = tested on: CAKI-1 renal
LOX IMVI melanoma = tested on: LOX IMVI melanoma
SF-539 CNS = tested on: SF-539 CNS
HCT-116 colon = tested on: HCT-116 colon

SMILES	GI50 (786-0 renal)	TGI (786-0 renal) [µM]	GI50 (OVCAR-8 ovarian)	TGI (OVCAR-8 ovarian) [µM]	TGI (SK-MEL-5 melanoma)	GI50 (CCRF-CEM leukemia)	TGI (CCRF-CEM leukemia) [µM]	GI50 (M14 melanoma)	TGI (M14 melanoma) [µM]	GI50 (CAKI-1 renal) [µM]	GI50 (LOX IMVI melanoma)	TGI (LOX IMVI melanoma) [µM]	GI50 (SF-539 CNS)	TGI (SF-539 CNS)	GI50 (HCT-116 colon)	TGI (HCT-116 colon) [µM]	TGI (CAKI-1 renal) [µM]	GI50 (SK-MEL-5 melanoma) [µM]
COC(=O)[C@@H](C)C[C@H](Cc1ccccc1)NC(=O)c1csc([C@@H](C[C@H](C(C)C)N(C)C(=O)[C@@H](NC(=O)[C@H]2CCCCN2C)C2CC2)OC(C)=O)n1	0.000456 µM and 0.00165 µM	> 16.5	0.000629 µM and 0.00165 µM	> 16.5	0.0138 µM and 0.00203 µM	0.000621 µM and 0.00165 µM	> 16.5	0.000455 µM and < 0.00165 µM	< 0.00165	0.00577	0.000562 µM and 0.00165 µM	> 16.5	0.00125 µM and 0.00165 µM	0.00448 µM and 0.00257 µM	0.00043 µM and 0.00165 µM	0.011		
CCN(CC)c1ccc(N=Nc2ccc(-c3nc4ccc[n+](C)c4o3)cc2)cc1		23.7		18.8	11 µM		19.8		24.8			18.5		20.3 µM		16.3	26.3	
C#CCOc1cccc(Nc2ncnc3cc(NC(=O)CCl)ccc23)c1	4.68 µM	18.5	3.32 µM	11	19.4 µM	1.55 µM	8.85	5.11 µM	20.4	3.51	1.19 µM	2.7	3.64 µM	15 µM	1.96 µM	10.2	15	6.31
O=C(O)CCc1nn2c(nc1=O)sc1ccc3ccccc3c12		> 100		> 100	> 100 µM		> 100		> 100			> 100		> 100 µM		> 100	> 100	
N#CC1(C#N)C(C#N)(C#N)C12CCCCCC2		14.3		26.7	36.7 µM		6.89		8.67			32.3		18 µM		17.5	24.6	
N#C/C(=C\c1ccc(Br)cc1)n1nnc2ccc(F)cc21	0.846 µM	2.6	1.84 µM	18.2	2.94 µM	0.395 µM	> 100	0.385 µM	1.69	0.293	0.347 µM	1.28	1.26 µM	2.94 µM	0.741 µM	2.35	1.35	1.57
CC(C)(c1ccccc1)c1ccc(OC#N)cc1		> 100		> 100	> 100 µM		> 76.3		> 100			> 58.9		> 100 µM		> 65.7	> 100	
